Numbered stars: 1 amine (or outer) side, 2 acyl side, 3 side chain; on linkers, the order of the positions; unused ones are H or OH. Bridge positions count the residues as written; N and C are the ends. Square brackets hold non-standard residues; d marks the D form. Peptide text beside a SMILES is read from it. * marks the point of attachment. Trp(βS-Me,7-OMe) = COc1cccc2c([C@H](C)[C@H](N)C(=O)O)c[nH]c12; Trp(4-Cl) = N[C@@H](Cc1c[nH]c2cccc(Cl)c12)C(=O)O; Trp(7-Cl) = N[C@@H](Cc1c[nH]c2c(Cl)cccc12)C(=O)O; Phe(4-COOH) = N[C@@H](Cc1ccc(C(=O)O)cc1)C(=O)O; Trp(7-aza) = N[C@@H](Cc1c[nH]c2ncccc12)C(=O)O; X10 = O=C([C@H](Cc1ccnc2ccccc12)N[*:1])[*:2]; Phe(4-CH2NH2) = NCc1ccc(C[C@H](N)C(=O)O)cc1; X2 = C[C@@H]1CC[C@@H](C(=O)[*:2])N([*:1])C1; αMeW = C[C@](N)(Cc1c[nH]c2ccccc12)C(=O)O; X1 = O=C([C@@H]1CC[C@H](N[*:1])C1)[*:2]; X6 = O=C([C@@H](N[*:1])C1(O)CC1)[*:2]; Pip(4-aza) = O=C(O)[C@@H]1CNCCN1; 4Pal = N[C@@H](Cc1ccncc1)C(=O)O; NMeE = CN[C@@H](CCC(=O)O)C(=O)O; αMeS = C[C@](N)(CO)C(=O)O; Carboxymethyl = O=C(O)C*; Nle = CCCC[C@H](N)C(=O)O; Sar = CNCC(=O)O
What follows are compounds tested against T1, TNFα-induced NF-κB signal transduction pathway (TNFR1 signaling) in THP-1 cells (Homo sapiens, UniProt P19438) (assay: THP-1 Lucia NF-κB reporter cell assay, inhibition of TNFα-induced NF-κB signaling). Conditions: THP-1 NF-κB Lucia reporter cells, 10 ng/mL TNFα, 16-18 h, secreted luciferase; read-out: THP-1 IC50.
T1 sequence (P19438 30-455): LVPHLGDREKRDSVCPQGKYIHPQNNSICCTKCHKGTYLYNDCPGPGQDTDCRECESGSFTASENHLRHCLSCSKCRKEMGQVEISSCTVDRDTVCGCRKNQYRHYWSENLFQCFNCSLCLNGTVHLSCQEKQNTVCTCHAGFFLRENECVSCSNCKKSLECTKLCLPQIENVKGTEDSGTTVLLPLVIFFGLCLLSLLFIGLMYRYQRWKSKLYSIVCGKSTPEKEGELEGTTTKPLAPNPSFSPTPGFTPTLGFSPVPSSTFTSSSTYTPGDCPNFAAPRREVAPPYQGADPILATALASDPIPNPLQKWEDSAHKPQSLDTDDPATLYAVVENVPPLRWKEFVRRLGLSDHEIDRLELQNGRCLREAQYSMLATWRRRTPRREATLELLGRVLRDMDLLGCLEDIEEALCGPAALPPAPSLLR
Format: cell-based
Summary of the method: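 Macrocyclic peptides were preincubated 1 h at 37 °C with THP-1 NF-κB-Lucia reporter cells (20,000 cells/well) in antibiotic-free RPMI 1640/10% FBS, then stimulated with 10 ng/mL human TNFα overnight (16-18 h). Secreted luciferase in supernatant was read by luminescence; IC50 from 4-parameter logistic fits.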
In the case of `CCCC[C@@H]1NC(=O)CSC[C@@H](C(N)=O)NC(=O)[C@H]([C@@H](C)c2c[nH]c3c(OC)cccc23)NC(=O)CN(C)C(=O)[C@H](Cc2ccc(O)cc2)NC(=O)[C@H](Cc2ccc(C(=O)O)cc2)NC(=O)[C@](C)(CO)NC(=O)[C@H](Cc2c[nH]c3c(Cl)cccc23)NC(=O)[C@H](Cc2ccncc2)NC(=O)[C@H](CC(N)=O)NC(=O)[C@H](CCC(=O)O)N(C)C(=O)[C@H](Cc2c[nH]c3ccccc23)NC(=O)[C@@H]2CC[C@@H](C)CN2C(=O)[C@H](Cc2ccncc2)NC1=O` [SEQ ID NO. 272] ({CH2CO}-[Nle][4Pal][X2]W[NMeE]N[4Pal][Trp(7-Cl)][αMeS][Phe(4-COOH)]Y[Sar][Trp(βS-Me,7-OMe)]C-NH2; thioether N-14), the IC50 is reported as 2.6 nM.
`C[C@@]1(CO)NC(=O)[C@H](Cc2c[nH]c3ncccc23)NC(=O)[C@H](Cc2ccncc2)NC(=O)[C@H](CC(N)=O)NC(=O)[C@H]2CCCN2C(=O)[C@H](Cc2ccnc3ccccc23)NC(=O)[C@H](CO)NC(=O)[C@H](Cc2ccncc2)NC(=O)[C@H](CCC(N)=O)NC(=O)CSC[C@@H](C(N)=O)NC(=O)[C@H](Cc2c[nH]c3cccc(Cl)c23)NC(=O)[C@@H]2CCCN2C(=O)[C@H](Cc2ccc(O)cc2)NC(=O)[C@H](Cc2ccc(C(=O)O)cc2)NC1=O` [SEQ ID NO. 278] ({CH2CO}-Q[4Pal]S[X10][dP]N[4Pal][Trp(7-aza)][αMeS][Phe(4-COOH)]YP[Trp(4-Cl)]C-NH2; thioether N-14) was tested, and the IC50 was 54.5 nM.
With `CCCC[C@@H]1NC(=O)CSC[C@@H](C(N)=O)NC(=O)[C@](C)(Cc2c[nH]c3ccccc23)NC(=O)CN(C)C(=O)[C@H](Cc2ccc(O)cc2)NC(=O)[C@H](Cc2ccc(C(=O)O)cc2)NC(=O)[C@](C)(CO)NC(=O)[C@H](Cc2c[nH]c3c(Cl)cccc23)NC(=O)[C@H](Cc2ccncc2)NC(=O)[C@H](CC(N)=O)NC(=O)[C@H](CCC(=O)O)N(C)C(=O)[C@H](Cc2c[nH]c3ncccc23)NC(=O)[C@H](C2(O)CC2)NC(=O)[C@H](Cc2ccncc2)NC1=O` [SEQ ID NO. 281] ({CH2CO}-[Nle][4Pal][X6][Trp(7-aza)][NMeE]N[4Pal][Trp(7-Cl)][αMeS][Phe(4-COOH)]Y[Sar][αMeW]C-NH2; thioether N-14) the IC50 was 8.4 nM.
`CCCC[C@@H]1NC(=O)CSC[C@@H](C(N)=O)NC(=O)[C@](C)(Cc2c[nH]c3ccccc23)NC(=O)CN(C)C(=O)[C@H](Cc2ccc(O)cc2)NC(=O)[C@H](Cc2ccc(OCC(=O)O)cc2)NC(=O)[C@](C)(CO)NC(=O)[C@H](Cc2c[nH]c3c(Cl)cccc23)NC(=O)[C@H](Cc2ccncc2)NC(=O)[C@H](CC(N)=O)NC(=O)[C@H](CCC(=O)O)N(C)C(=O)[C@H](Cc2c[nH]c3ncccc23)NC(=O)[C@H](CO)NC(=O)[C@H](Cc2ccc(CN)cc2)NC1=O` [SEQ ID NO. 283] ({CH2CO}-[Nle][Phe(4-CH2NH2)]S[Trp(7-aza)][NMeE]N[4Pal][Trp(7-Cl)][αMeS]Y(Carboxymethyl)Y[Sar][αMeW]C-NH2; thioether N-14) gave an IC50 of 6.4 nM.
`CCCC[C@@H]1NC(=O)[C@@H]2CC[C@@H](C2)NC(=O)[C@H]([C@@H](C)c2c[nH]c3c(OC)cccc23)NC(=O)CN(C)C(=O)[C@H](Cc2ccc(O)cc2)NC(=O)[C@H](Cc2ccc(C(=O)O)cc2)NC(=O)[C@](C)(CO)NC(=O)[C@H](Cc2c[nH]c3c(Cl)cccc23)NC(=O)[C@H](Cc2ccc(C(=O)O)cc2)NC(=O)[C@H](CC(N)=O)NC(=O)[C@H](CCC(=O)O)N(C)C(=O)[C@H](Cc2c[nH]c3ccccc23)NC(=O)[C@@H]2CNCCN2C(=O)[C@H](Cc2ccncc2)NC1=O` [SEQ ID NO. 288] (cyclo([4Pal][Pip(4-aza)]W[NMeE]N[Phe(4-COOH)][Trp(7-Cl)][αMeS][Phe(4-COOH)]Y[Sar][Trp(βS-Me,7-OMe)][X1][Nle])) showed an IC50 of 4.2 nM.

Same assay, conditions: read-out: THP-1 IC50; THP-1 NF-κB Lucia reporter cells, 10 ng/mL TNFα, 16-18 h, secreted luciferase
With `CN1CC(=O)N[C@@H](CC(N)=O)C(=O)N[C@@H](Cc2ccc(O)cc2)C(=O)N[C@@H](Cc2c[nH]c3ccccc23)C(=O)N[C@@H](CO)C(=O)N[C@@H](Cc2ccc(O)cc2)C(=O)N[C@@H](Cc2ccc(O)cc2)C(=O)N(C)CC(=O)N[C@@H](Cc2c[nH]c3ccccc23)C(=O)N[C@H](C(=O)NCC(=O)N[C@@H](CCC(=O)O)C(=O)N[C@@H](CCC(=O)O)C(N)=O)CSCC(=O)N[C@@H](Cc2ccccc2)C(=O)N[C@@H](Cc2ccc(O)cc2)C(=O)N[C@@H](CO)C(=O)N[C@@H](Cc2c[nH]c3ccccc23)C1=O` [SEQ ID NO. 289] ({CH2CO}-FYSW[Sar]NYWSYY[Sar]WCGEE-NH2; thioether N-14) the IC50 was 36.4 nM.
